Data on eight compounds can be found in US20090030038A1, “Novel 8-Sulfonylamino-3 Aminosubstituted Chroman or Tetrahydronaphtalene Derivatives Modulating the 5Ht6 Receptor” (ASTRAZENECA AB, priority 2005, published 2009).

In the assay the target is T1, rat striatal 5HT6 receptors (Rattus norvegicus, UniProt P31388).
T1 construct: Striatal tissue from adult rats (Sprague-Dawley, 320-370 g, B & K Sweden) were dissected out, weighed and homogenized; from tissue; host or cells: rat striatum (Sprague-Dawley) membranes
T1 sequence (P31388 whole entry): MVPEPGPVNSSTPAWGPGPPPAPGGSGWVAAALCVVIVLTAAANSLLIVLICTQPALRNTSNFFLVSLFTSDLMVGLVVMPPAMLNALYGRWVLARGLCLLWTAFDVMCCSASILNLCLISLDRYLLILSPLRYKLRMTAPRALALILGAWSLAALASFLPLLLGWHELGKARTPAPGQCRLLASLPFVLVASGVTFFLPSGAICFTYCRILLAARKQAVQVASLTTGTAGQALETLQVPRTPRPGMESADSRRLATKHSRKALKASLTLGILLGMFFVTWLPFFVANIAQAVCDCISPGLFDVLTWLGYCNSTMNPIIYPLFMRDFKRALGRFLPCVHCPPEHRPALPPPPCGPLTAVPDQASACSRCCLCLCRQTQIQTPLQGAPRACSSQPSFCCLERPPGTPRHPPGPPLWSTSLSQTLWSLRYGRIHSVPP
Description: [125I]SB258585 binding to rat striatal 5HT6 receptors. As to conditions: competition with [125I]SB258585, rat striatal membranes. On the procedure:
Method for [125I]SB258585 binding to rat striatal 5HT6 receptors
[125I]SB258585 (1) with specific activity 2000 Ci/mmol was purchased from Amersham Biosciences Europe GmbH, Freiburg, Germany. Other chemicals were purchased from commercial sources and were of analytical grade.
Striatal tissue from adult rats (Sprague-Dawley, 320-370 g, B & K Sweden) were dissected out, weighed and homogenized in buffer containing 50 mM Tris-HCl, 4 mM MgCl2, 1 mM EDTA, 10 μM pargyline and protease inhibitor (Complete, Roche Diagnostics) pH 7.4 using an Ultra-Turrax T8 (IKA Labortechnik, Germany). The tissue homogenate was centrifuged at 48 000×g for 10 min and the pellet was resuspended and recentrifuged as above. The final membranes were diluted in buffer to a concentration of 60 mg original wet weight (w.w.) per ml and stored in aliquots at −70° C.
Saturation binding studies were carried out in duplicate with 1-3 mg w.w. per tube in 0.5 ml buffer (50 mM Tris, 4 mM MgCl2, 100 mM NaCl, 1 mM EDTA, 5 mM ascorbate and 10 μM pargyline at pH 7.4), 0.2 nM [125I]SB258585 and unlabelled SB258585 to give a final concentration range of 0.23-20 nM (12 conc.). Non-specific binding was determined in the presence of 10 μM methiothepin. In the competition experiments 0.8-2 mg w.w. per tube and a radioligand concentration of 0.5-1 nM were used with 7 concentrations of the competing drug pre-dissolved in DMSO and diluted in buffer. The assays were incubated for 1-3 hours at room temperature, and terminated by rapid filtration through Whatman GF/B filters pretreated with 0.3% polyethyleneimine using a Brandel cell harvester. The radioactivity was determined in a Packard Tri-Carb 2900TR liquid scintillation counter. Data were analyzed by non-linear regression analyses using PRISM 4.00 (GraphPad Software Inc., San Diego, Calif.).
Hirst, W. D., Minton, J. A. L., Bromidge, S. M., Moss, S. F., Latter, A., Riley, G., Routledge, C., Middlemiss, D. N. & Price, G. W. (2000). Characterization of [125I]-SB-258585 binding to human recombinant and native 5HT6 receptors in rat, pig and human brain tissue. Br. J. Pharmacol., 130, 1597-1605.
Regarding `COc1ccc(NS(=O)(=O)c2ccccc2-c2ccccc2)c2c1C[C@@H](N(C)C)CO2` [Example 122, N-[(3R)-3-(dimethylamino)-5-methoxy-3,4-dihydro-2H-chromen-8-yl]-1,1′-biphenyl-2-sulfonamide], the affinity corresponds to a Ki of 2 ± 0.6 nM.

Compound `CN(C)[C@H]1CCc2c(cccc2NS(=O)(=O)c2cccc(Br)c2)C1` [Example 170, (2S)-5-{[(3-Bromophenyl)sulfonyl]amino}-N,N-dimethyl-1,2,3,4-tetrahydronaphthalen-2-ammonium Acetate] showed a Ki of 74 nM.

The compound `COc1ccc(NS(=O)(=O)c2sc3ccc(F)cc3c2C)c2c1C[C@@H](N(C)C)CC2` [Example 181, N-[(6S)-6-(dimethylamino)-4-methoxy-5,6,7,8-tetrahydronaphthalen-1-yl]-5-fluoro-3-methyl-1-benzothiophene-2-sulfonamide] had a Ki of 19 ± 0.8 nM.

In turn, `COc1ccc(NS(=O)(=O)c2cc(Cl)cc(Cl)c2)c2c1C[C@@H](N1CCCC1)CC2` [Example 313, 3,5-Dichloro-N-[(6S)-4-methoxy-6-pyrrolidin-1-yl-5,6,7,8-tetrahydronaphthalen-1-yl]benzenesulfonamide] came in with a Ki of 290 ± 190 nM.

For the compound `COc1ccc(NS(=O)(=O)c2ccccc2-c2ccccc2)c2c1C[C@@H](N(C)C)CC2` [Example 176, N-[(6S)-6-(dimethylamino)-4-methoxy-5,6,7,8-tetrahydronaphthalen-1-yl]-1,1′-biphenyl-2-sulfonamide], affinity was put at a Ki of 13 ± 5.9 nM.

In turn, `COc1ccc(NS(=O)(=O)c2ccc3ccccc3c2)c2c1C[C@@H](N(C)C)CO2` [Example 24, N-[(3R)-3-(dimethylamino)-5-methoxy-3,4-dihydro-2H-chromen-8-yl]naphthalene-2-sulfonamide] came in with a Ki of 42 ± 27 nM.

`COc1ccc(NS(=O)(=O)c2cccc(Br)c2)c2c1C[C@@H](N(C)C)CO2` [Example 3, 3-Bromo-N-[(3R)-3-(dimethylamino)-5-methoxy-3,4-dihydro-2H-chromen-8-yl]benzenesulfonamide] had a Ki of 7.5 ± 3.6 nM.

The compound `COc1ccc(NS(=O)(=O)c2ccc(-c3ccnc(SC)n3)s2)c2c1C[C@@H](N(C)C)CO2` [Example 135, N-[(3R)-3-(dimethylamino)-5-methoxy-3,4-dihydro-2H-chromen-8-yl]-5-[2-(methylthio)pyrimidin-4-yl]thiophene-2-sulfonamide] came in with a Ki of 49 ± 16 nM.

By Ki is commonly meant a dissociation constant, usually derived from enzyme kinetics or from competition with a known ligand.
